Two molecules from publication PMC3495668, “Serotonin-Induced Hypersensitivity via Inhibition of Catechol O-Methyltransferase Activity” (Molecular Pain, 2012) can be followed below.

Series [1] addresses T1, catechol O-methyltransferase (COMT) (Sus scrofa, UniProt F1RHN3).
T1 construct: Purified COMT protein (derived from porcine liver), biotinylated at surface lysines
T1 sequence (F1RHN3 1-270): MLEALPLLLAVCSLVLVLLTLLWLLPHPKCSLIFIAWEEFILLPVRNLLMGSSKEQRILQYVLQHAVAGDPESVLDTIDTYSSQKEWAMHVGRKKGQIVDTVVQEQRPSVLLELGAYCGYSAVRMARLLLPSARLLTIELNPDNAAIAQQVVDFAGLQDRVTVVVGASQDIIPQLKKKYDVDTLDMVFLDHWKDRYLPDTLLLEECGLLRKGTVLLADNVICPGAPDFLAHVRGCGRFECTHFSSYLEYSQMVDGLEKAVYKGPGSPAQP
As to the kind of experiment: SPR (Biacore […]); also radiolabelled SAM activity assay, Ki,app […]. Type of series: binding.

Substrate in series [2]: Oc1ccccc1O
Kind of series: radiolabelled SAM methylation assay, Michaelis-Menten KM. Type of series: biochemical, Sus scrofa. Conditions: S-adenosyl-L-methionine; Mg2+ ([…] MgCl2) catechol substrate site.

In turn, `NCCc1c[nH]c2ccc(O)cc12` [serotonin] yielded a Kd in series [1] of around 87 µM.

B1: catechol O-methyltransferase (COMT) (Sus scrofa) (protein)
chain: T1 sequence (F1RHN3 1-270)
notes: Purified COMT
B1: the Michaelis-Menten constant (Km) (usually the substrate concentration at which the rate is half of its maximum) in series [2] stood at 16 µM.
